Measurements taken from EP4793274A1, “SALT AND CRYSTAL FORM OF KIF18A INHIBITOR COMPOUND, PREPARATION METHOD THEREFOR AND USE THEREOF” (Hubei Bio-Pharmaceutical Industrial Technological Institute …, priority 2023, dated 2025).

Key:
[1] = biological target: T1, recombinant protein KIF18A (kinesin domain: aa 1-467) (Homo sapiens, UniProt Q8NI77); assay: Inhibition of KIF18A enzymatic activity (ADP-Glo kinase assay kit); format: biochemical; details: KIF18A 80 nM, ATP 80 µM, 3 h at room temperature, luminescence
T1 construct: KIF18A (kinesin domain: aa 1-467); made in house; host or cells: Bac-to-Bac baculovirus expression system (Invitrogen)
T1 sequence (Q8NI77 1-467): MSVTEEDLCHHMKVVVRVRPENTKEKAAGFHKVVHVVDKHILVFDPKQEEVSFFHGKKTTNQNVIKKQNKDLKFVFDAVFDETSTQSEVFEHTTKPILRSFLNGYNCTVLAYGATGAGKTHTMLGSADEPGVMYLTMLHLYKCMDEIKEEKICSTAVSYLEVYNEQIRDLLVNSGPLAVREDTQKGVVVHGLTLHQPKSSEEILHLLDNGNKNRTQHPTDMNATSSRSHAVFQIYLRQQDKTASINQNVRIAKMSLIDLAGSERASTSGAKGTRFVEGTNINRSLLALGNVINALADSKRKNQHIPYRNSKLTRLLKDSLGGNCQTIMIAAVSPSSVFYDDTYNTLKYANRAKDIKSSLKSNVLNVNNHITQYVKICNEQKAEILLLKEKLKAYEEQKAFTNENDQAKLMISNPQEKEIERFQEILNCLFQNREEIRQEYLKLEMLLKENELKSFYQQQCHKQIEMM
From the text: The recombinant protein KIF18A (kinesin domain: aa 1-467) used in this assay was expressed by the Bac-to-Bac baculovirus expression system from Invitrogen, and the resulting protein was purified for use in this assay (Seki, M. et al. 2003 Nucleic Acids Res.). Quantitative detection of KIF18A enzymatic activity was completed using an ADP-Glo™ kinase assay kit (Promega Inc). Related procedures strictly followed the product instructions, which are briefly described as follows: The reaction system consisted of a test compound, the recombinant protein KIF18A (aa 1-467), ATP (Promega Inc), and an assay buffer. The test compound was prepared into a 0.5 mM stock solution using DMSO (Sigma Inc) and then serially diluted in DMSO. The assay buffer consisted of an aqueous solution of 15 mM Tris, 10 mM MgCl2 (Sigma Inc), 0.01% Pluronic F-68 (Life Technologies Inc), 1 µM paclitaxel (Cytoskeleton Inc), 30 µg/mL porcine tubulin (Cytoskeleton Inc), and 2% DMSO. […] After all reactions were completed, the luminescence values of the wells were read on a microplate reader (Molecular Device_SpectraMax Id5), and the inhibition ratios were calculated. […] Then, based on the inhibition rates at different compound concentrations, the IC50 value of the test compound was calculated using the GraphPad Prism 8 software.

[2] = tested on: NIH:OVCAR-3 cells; assay: Inhibition of OVCAR3 tumor cell proliferation (CellTiter-Glo); format: cell-based; details: Homo sapiens, OVCAR-3, 72 h, 3 days drug treatment
Experimental: NIH:OVCAR-3 cells (ATCC, Cat No. HTB-161, purchased from Co-Bier) were seeded into a T75 culture flask and cultured in an RPMI 1640 medium containing 20% FBS for 3 days in preparation for subsequent culturing and seeding into a 96-well plate for the cell proliferation assay. The OVCAR3 cells were seeded at a density of 3000 cells/100 µL/well into the 96-well cell plate, and then the plate was incubated in an incubator (37 °C, 5% CO2) for 18 h. On the second day, drug treatment was started. Serially diluted test compound solutions (each drug starting at a concentration of 10 µM, diluted in DMSO, with a dilution ratio of 1:3, and nine gradient points for each drug) or DMSO (negative control) was added to the medium in the plate at 100 µL/well, and a blank group was set up with only medium, but no seeded cell strains. After the drug addition, the plate was incubated in the incubator for another 3 days (37 °C, 5% CO2). On the fourth day, plate detection was performed. To each well, 100 µL of CellTiter-Glo reagent (Promega G9243) was added. The plate was shaken for 5 min and then left to stand at room temperature for 5 min. The chemical luminescence signal value of each well was determined using a microplate reader (PerkinElmer EnVision®2104). […] Then, the IC50 value of the test compound was calculated using the GraphPad Prism 8 software.

[3] = pKa of the compound; format: physicochemical; details: basic group

Work on `Cc1cc(-c2cnn(-c3ccc(NS(=O)(=O)CCO)cc3N3CCC4(CC3)CC4)c2)nc(N2CCC(F)(F)CC2)n1` [compound of formula I, N-(4-(4-(2-(4,4-difluoropiperidin-1-yl)-6-methylpyrimidin-4-yl)-1H-pyrazol-1-yl)-3-(6-azaspiro[2.5]octan-6-yl)phenyl)-2-hydroxyethane-1-sulfonamide] yielded an IC50 [1] of 11 nM, an IC50 [2] of 96 nM and a pKa [3] of 4.5.
